Results on nine compounds are retold here after patent US9446029B2, “Use of NK-1 receptor antagonists in management of visceral pain” (priority 2010, dated 2016).

Like-named read-outs stand apart in the source and are kept apart here.

In series [1] the test system is dogs. As to conditions: cited from earlier work.
Series [2] concerns dogs. Kind of series: Sevoflurane MAC reduction by I.V. maropitant during ovarian ligament stimulation in dogs (Example 1). It counts as in vivo, dog. As to conditions: for MAC Reduction (%, mean ± SD): sevoflurane, ovarian ligament stimulation. How it is done:
The NK1 receptor antagonist maropitant, available as […]® from Pfizer, is an antiemetic approved for use in dogs. The ability of maropitant to impact the sevoflurane minimum alveolar concentration (MAC) level needed for surgery was tested in canine subjects. The eight animals were 1 year old, intact female, Walker hound mix. A first group was administered 1 mg/kg maropitant, I.V. over 5 minutes then 30 μg/kg/h. A second group was administered 5 mg/kg maropitant, I.V. over 5 minutes then 150 μg/kg/h. General anesthesia was induced using sevoflurane as described below and otherwise according to standard veterinary procedure. Animals were maintained in dorsal recumbency. MAC reduction effect was tested by stimulation of the ovarian ligament. Ovariectomy was performed on each animal at the end of the study. In each animal, sterile laparoscopy was performed to access the right ovary. Following thirty minutes of sevoflurane at steady state, end-tidal sevoflurane concentration was measured with a calibrated agent analyzer (Biochem). […] Esophageal temperature was 37.5-39° C. Ovarian ligament stimulation was performed using 6.61 Newton's of force with a calibrated grass force displacement transducer. FIG. 1 is a bar graph comparing the MAC reduction using I.V. maropitant during […] anesthesia. The observed MAC reduction is reported at sea level (mean±SD), and compared to published results for other MAC reduction agents in Table 1.

The test system of another series is cats. Kind of series: Sevoflurane MAC during ovarian ligament stimulation in cats (Example 3). To be noted: for sevoflurane anesthetic requirement MAC (mean±SD): ovarian ligament stimulation, control MAC 2.96±0.32%. The series is classed as in vivo, cat. The source says:
Ten (10) female cats were anesthetized with sevoflurane. Following stabilization, the right ovarian ligament was accessed using a laparoscopic approach to determine the anesthetic minimum alveolar concentration (MAC). The ovarian ligament was stimulated using 500 grams of traction force. The MAC is reported as mean±SD, adjusted for calibration values and to sea-level. The anesthetic requirement MAC during stimulation of the ovary was 2.96±0.32%.

The subject of series [3] is dogs. Kind of series: Clinical trial of analgesia and comfort in dogs during and after spay surgery (laparotomy ovariohysterectomy), isoflurane anesthesia (Example 2). The arrangement: dogs showing overt signs of nausea after surgery: dose or concentration left out as unconfirmed. As to conditions: for Post-Operative Carprofen Rescue Analgesia (4 mg/kg, IV): dogs requiring a rescue dose: recovery period; for pain assessment, Visual Analogue Pain Scale (0-10), compared to control group: three hours following recovery from anesthesia, FIG. 6.

Where [4] appears, read: maropitant 1 mg/kg SQ or morphine 0.5 mg/kg SQ before anesthesia.

In the case of `CC(=O)c1ccc2c(c1)N(CCCN(C)C)c1ccccc1S2` [Acepromazine], the “MAC Reduction (%, mean ± SD)” value in the series on dogs [1] (acepromazine 0.04 mg/kg, halothane, Heard et al., 1986) is 40%.

Turning to `Oc1ccc2c(c1)[C@@]13CCCC[C@@]1(O)[C@@H](C2)N(CC1CCC1)CC3` [Butorphanol], the “MAC Reduction (%, mean ± SD)” value in the series on dogs [1] (dog, in vivo) is given as 8%.

On to `CC(C(=O)O)c1ccc2c(c1)[nH]c1ccc(Cl)cc12` (centres unmarked) [Carprofen], for which the “MAC Reduction (%, mean ± SD)” value in the series on dogs [1] (carprofen 4 mg/kg, sevoflurane, Yamashita et al., 2008) is recorded as 12%.

Consider `Cc1cccc([C@H](C)c2cnc[nH]2)c1C` [Dexmedetomidine], for which the “MAC Reduction (%, mean ± SD)” value in the series with dogs [1] (dexmedetomidine 0.5 μg/kg, 0.5 μg/kg/h, isoflurane, Pascoe et al., 2006) is reported as 18%; in the series with dogs [1] (dexmedetomidine 3 μg/kg, 3 μg/kg/h, isoflurane, Pascoe et al., 2006) it was 59%.

For `CNC1(c2ccccc2Cl)CCCCC1=O` (centres unmarked) [Ketamine], in the series on dogs [1] (dog, in vivo), the “MAC Reduction (%, mean ± SD)” value is reported as 47%.

Consider `CCN(CC)CC(=O)Nc1c(C)cccc1C` [Lidocaine], for which the “MAC Reduction (%, mean ± SD)” value is reported as 19% with dogs [1] (lidocaine 2 mg/kg, 50 μg/kg/min, isoflurane, Valverde et al., 2004) and 43% in the series with dogs [1] (lidocaine 2 mg/kg, 200 μg/kg/min, isoflurane, Valverde et al., 2004).

On to `COc1ccc(C(C)(C)C)cc1CN[C@H]1C2CCN(CC2)[C@@H]1C(c1ccccc1)c1ccccc1` [Maropitant, (7R,8S)—N-[(5-tert-Butyl-2-methoxyphenyl)methyl]-7-[di(phenyl)methyl]-1-azabicyclo[2.2.2]octan-8-amine], for which the “MAC Reduction (%, mean ± SD)” value in the series with dogs [2] (maropitant 1 mg/kg I.V. over 5 minutes then 30 μg/kg/h) stood at 24%. The “MAC Reduction (%, mean ± SD)” value in the series with dogs [2] (maropitant 5 mg/kg I.V. over 5 minutes then 150 μg/kg/h) stood at 30%. Besides, the “increase of the pain threshold during anesthesia” value in the series with dogs [2] (summary of Example 1 (1 and 5 mg/kg)) is reported as 24-30%. In addition, in the series with cats (higher maropitant dose IV), the “decrease of anesthetic requirement MAC” value stood at 17% and the “sevoflurane anesthetic requirement MAC (mean±SD)” value was 2.45±0.43%. Moreover, the “sevoflurane anesthetic requirement MAC (mean±SD)” value with cats (maropitant 1 mg/kg IV, 500 grams traction) turned out to be 2.50±0.33%. Further, the “decrease of anesthetic requirement MAC” value in the series on cats (maropitant 1 mg/kg IV, p<0.01) is recorded as 15%. In the series with dogs [3] (setting [4]), the “average heart rate throughout surgery” value came to 103±20 beats per minute, the “average respiratory rate throughout surgery” value turned out to be 21±12 breaths per minute, the “dogs that started eating within 3 hours following surgery” value was determined as 65% and the “subjects responding with panting during surgical painful stimulation” value is reported as 35%. The “Post-Operative Carprofen Rescue Analgesia (4 mg/kg, IV): dogs requiring a rescue dose” value in the series with dogs [3] (setting [4]) amounted to 18%. In addition, the “isoflurane anesthesia required during ovary ligation and resection (vaporizer setting)” value in the series on dogs [3] (maropitant 1 mg/kg SQ or morphine 0.5 mg/kg SQ before anesthesia, FIG. 2) is recorded as 1.41±0.25%. The “isoflurane anesthesia required during skin closure” value in the series with dogs [3] (maropitant 1 mg/kg SQ or morphine 0.5 mg/kg SQ before anesthesia, end of surgery, FIG. 4) came out at 1.26±0.19%. In addition, in the series with dogs [3] (maropitant 1 mg/kg SQ or morphine 0.5 mg/kg SQ before anesthesia, listed as maropitant), the “Post-Operative Carprofen Rescue Analgesia (4 mg/kg, IV): dogs requiring a rescue dose” value stood at 18%. Also, the “pain assessment, Visual Analogue Pain Scale (0-10), compared to control group” value in the series with dogs [3] is “showed fewer overt signs of pain and discomfort”.

As for `Cc1cnc(NC(=O)C2=C(O)c3ccccc3S(=O)(=O)N2C)s1` [Meloxciam], in the series on dogs [1] (meloxicam 0.2 mg/kg, sevoflurane, Yamashita et al., 2008), the “MAC Reduction (%, mean ± SD)” value is reported as 23%.

As for `CN1CC[C@]23c4c5ccc(O)c4O[C@H]2[C@@H](O)C=C[C@H]3[C@H]1C5` [Morphine, morphine], the “MAC Reduction (%, mean ± SD)” value with dogs [1] (dog, in vivo) is recorded as 35, 39%. The “dogs showing overt signs of nausea after surgery” value with dogs [3] (before anesthesia) worked out at 31%. In the series on dogs [3] (setting [4]), the “average heart rate throughout surgery” value came out at 115±23 beats per minute, the “average respiratory rate throughout surgery” value is 27±20 breaths per minute, the “dogs that started eating within 3 hours following surgery” value is reported as 26% and the “dogs whose esophageal pH decreased below 5 during surgery (gastric regurgitation)” value is 29%. Besides, in the series with dogs [3] (setting [4]), the “subjects responding with panting during surgical painful stimulation” value was found to be 38% and the “Post-Operative Carprofen Rescue Analgesia (4 mg/kg, IV): dogs requiring a rescue dose” value is listed as 30%. The “Post-Operative Carprofen Rescue Analgesia (4 mg/kg, IV): dogs requiring a rescue dose” value in the series on dogs [3] (maropitant 1 mg/kg SQ or morphine 0.5 mg/kg SQ before anesthesia, listed as morphine) was 30%. Also, the “pain assessment, Visual Analogue Pain Scale (0-10), compared to control group” value with dogs [3] is “only through the initial two hours of assessment”.
